According to ChEMBL document CHEMBL5665443, “Enzyme Inhibitor Single Concentration assay results for EUbOPEN Chemogenomics Library” (2024):

Key:
[1] = target: G/T mismatch-specific thymine DNA glycosylase (Homo sapiens) (UniProt Q13569); conditions: Hit No;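 note: human TDG cleavage of quenched duplex DNA oligonucleotides coupled to APE1, strand release read as fluorescence at 594 nm, inhibition of TDG activity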
Description: Inhibition of TDG by quantifying inhibition of TDG-mediated cleavage and dissociation of quenched duplex DNA oligonucleotides, measured as fluorescence at 594 nm. To generate a functional strand incision and increase turn-over this assay is coupled to APE1.

[2] = target: Methyl-CpG-binding domain protein 4 (Homo sapiens) (UniProt O95243); conditions: Hit No;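 note: MBD4 activity read as fluorescence at 594 nm from cleavage and release of a quenched duplex DNA oligonucleotide, with APE1 coupled to incise the strand and raise turnover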
Description: Inhibition of MBD4 by quantifying inhibition of MBD4-mediated cleavage and dissociation of quenched duplex DNA oligonucleotides, measured as fluorescence at 594 nm. To generate a functional strand incision and increase turn-over this assay is coupled to APE1.

[3] = target: T1, Endonuclease III-like protein 1 (Homo sapiens) (UniProt P78549); conditions: Hit No;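 note: enzyme assay tracking NTHL1 cutting and release of a quenched double-stranded DNA oligo substrate, read as fluorescence at 594 nm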
T1 sequence (whole entry): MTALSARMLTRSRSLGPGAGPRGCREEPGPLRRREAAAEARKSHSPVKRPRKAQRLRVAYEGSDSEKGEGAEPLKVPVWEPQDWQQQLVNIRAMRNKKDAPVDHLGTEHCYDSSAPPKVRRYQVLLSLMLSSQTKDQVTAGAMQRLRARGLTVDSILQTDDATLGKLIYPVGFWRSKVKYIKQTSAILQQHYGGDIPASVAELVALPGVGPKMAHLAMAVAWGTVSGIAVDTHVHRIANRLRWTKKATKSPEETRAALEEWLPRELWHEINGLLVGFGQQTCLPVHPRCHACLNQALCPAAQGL
Description: Inhibition of NTHL1 by quantifying inhibition of NTHL1-mediated cleavage and dissociation of quenched duplex DNA oligonucleotides, measured as fluorescence at 594 nm.

[4] = target: N-glycosylase/DNA lyase (Homo sapiens) (UniProt O15527);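 note: OGG1 cleavage of a quenched duplex DNA oligonucleotide, coupled to APE1 for strand incision, read as fluorescence at 594 nm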
Description: Inhibition of OGG1 by quantifying inhibition of OGG1-mediated cleavage and dissociation of quenched duplex DNA oligonucleotides, measured as fluorescence at 594 nm. To generate a functional strand incision and increase turn-over this assay is coupled to APE1.

[5] = target: Endonuclease 8-like 1 (Homo sapiens) (UniProt Q96FI4); conditions: Hit No;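 note: fluorescence at 594 nm from quenched duplex DNA oligonucleotides released by NEIL1 cleavage and strand separation, reported as reduction of this enzyme activity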
Description: Inhibition of NEIL1 by quantifying inhibition of NEIL1-mediated cleavage and dissociation of quenched duplex DNA oligonucleotides, measured as fluorescence at 594 nm.

[6] = target: T2, Endonuclease 8-like 2 (Homo sapiens) (UniProt Q969S2); conditions: Hit No;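 note: fluorescence at 594 nm reports NEIL2 cutting and release of a quenched double-stranded DNA oligo substrate, reduced signal read as inhibition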
T2 sequence (whole entry): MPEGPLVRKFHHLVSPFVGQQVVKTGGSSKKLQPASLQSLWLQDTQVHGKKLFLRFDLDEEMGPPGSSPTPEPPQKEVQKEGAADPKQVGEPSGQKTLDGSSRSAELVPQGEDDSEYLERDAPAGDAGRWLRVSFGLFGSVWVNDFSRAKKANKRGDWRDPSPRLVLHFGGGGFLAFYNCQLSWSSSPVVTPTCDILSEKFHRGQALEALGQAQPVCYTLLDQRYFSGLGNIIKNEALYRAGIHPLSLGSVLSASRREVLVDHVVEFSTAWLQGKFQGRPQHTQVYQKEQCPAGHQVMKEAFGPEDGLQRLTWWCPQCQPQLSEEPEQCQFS
Description: Inhibition of NEIL2 by quantifying inhibition of NEIL2-mediated cleavage and dissociation of quenched duplex DNA oligonucleotides, measured as fluorescence at 594 nm.

[7] = target: T3, Single-strand selective monofunctional uracil DNA glycosylase (Homo sapiens) (UniProt Q53HV7); conditions: Hit No;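 note: enzymatic SMUG1 assay coupled with APE1, reading fluorescence at 594 nm released when a quenched double-stranded DNA oligonucleotide substrate is cleaved and separated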
T3 sequence (whole entry): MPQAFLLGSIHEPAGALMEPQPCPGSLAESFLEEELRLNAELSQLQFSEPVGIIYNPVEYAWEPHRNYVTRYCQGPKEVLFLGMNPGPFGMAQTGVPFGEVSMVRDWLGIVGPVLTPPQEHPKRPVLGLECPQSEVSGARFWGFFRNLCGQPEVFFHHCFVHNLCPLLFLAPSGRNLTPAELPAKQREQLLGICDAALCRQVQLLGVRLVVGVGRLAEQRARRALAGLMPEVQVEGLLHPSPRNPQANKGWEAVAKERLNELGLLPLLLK
Description: Inhibition of SMUG1 by quantifying inhibition of SMUG1-mediated cleavage and dissociation of quenched duplex DNA oligonucleotides, measured as fluorescence at 594 nm. To generate a functional strand incision and increase turn-over this assay is coupled to APE1.

[8] = target: Uracil-DNA glycosylase (Homo sapiens) (UniProt P13051); conditions: Hit No;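 note: UNG excision on a quenched double-stranded DNA oligo probe, with APE1 added for strand incision and turnover, read as fluorescence at 594 nm as strands separate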
Description: Inhibition of UNG by quantifying inhibition of UNG-mediated cleavage and dissociation of quenched duplex DNA oligonucleotides, measured as fluorescence at 594 nm. To generate a functional strand incision and increase turn-over this assay is coupled to APE1.

[9] = Compound Concentration 10.0 uM, Hit No
[10] = Compound Concentration 1.0 uM, Hit No

Methyl-CpG-binding domain protein 4 (Homo sapiens), sequence (O95243 whole entry, the tested form may be a part): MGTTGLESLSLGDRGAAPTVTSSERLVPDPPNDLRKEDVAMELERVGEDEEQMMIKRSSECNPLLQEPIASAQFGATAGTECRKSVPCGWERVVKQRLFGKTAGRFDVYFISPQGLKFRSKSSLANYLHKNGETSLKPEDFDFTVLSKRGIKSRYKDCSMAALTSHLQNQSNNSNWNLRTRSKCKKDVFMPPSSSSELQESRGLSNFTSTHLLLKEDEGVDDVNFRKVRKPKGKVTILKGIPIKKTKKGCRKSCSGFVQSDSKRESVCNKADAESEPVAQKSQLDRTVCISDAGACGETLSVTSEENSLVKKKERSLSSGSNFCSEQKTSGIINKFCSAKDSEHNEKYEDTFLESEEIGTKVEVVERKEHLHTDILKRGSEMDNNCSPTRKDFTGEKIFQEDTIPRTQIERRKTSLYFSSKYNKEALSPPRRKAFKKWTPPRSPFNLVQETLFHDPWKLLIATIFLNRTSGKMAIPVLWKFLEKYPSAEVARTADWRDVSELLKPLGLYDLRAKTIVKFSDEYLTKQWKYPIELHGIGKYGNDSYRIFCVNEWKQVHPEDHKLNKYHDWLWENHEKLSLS
Endonuclease 8-like 1 (Homo sapiens), sequence (Q96FI4 whole entry): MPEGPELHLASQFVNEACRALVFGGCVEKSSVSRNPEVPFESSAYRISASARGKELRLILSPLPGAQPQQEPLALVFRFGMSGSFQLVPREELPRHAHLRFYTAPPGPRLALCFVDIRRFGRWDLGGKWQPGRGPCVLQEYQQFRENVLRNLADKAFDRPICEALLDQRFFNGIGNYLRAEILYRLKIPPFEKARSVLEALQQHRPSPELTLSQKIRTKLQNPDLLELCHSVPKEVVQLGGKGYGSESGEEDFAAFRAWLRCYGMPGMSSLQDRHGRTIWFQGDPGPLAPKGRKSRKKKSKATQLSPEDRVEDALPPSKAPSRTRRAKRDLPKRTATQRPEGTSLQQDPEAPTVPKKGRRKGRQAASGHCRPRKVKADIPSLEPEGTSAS
N-glycosylase/DNA lyase (Homo sapiens), sequence (O15527 whole entry): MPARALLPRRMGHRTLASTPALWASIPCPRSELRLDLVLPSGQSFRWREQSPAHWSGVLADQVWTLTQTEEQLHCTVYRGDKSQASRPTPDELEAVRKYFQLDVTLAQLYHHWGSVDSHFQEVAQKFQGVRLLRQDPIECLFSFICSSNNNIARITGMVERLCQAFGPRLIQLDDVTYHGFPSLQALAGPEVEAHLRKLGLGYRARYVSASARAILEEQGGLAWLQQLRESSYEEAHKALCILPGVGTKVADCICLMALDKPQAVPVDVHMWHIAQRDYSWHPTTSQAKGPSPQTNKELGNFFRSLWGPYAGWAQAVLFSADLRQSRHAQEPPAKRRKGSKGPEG
Uracil-DNA glycosylase (Homo sapiens), sequence (P13051 whole entry): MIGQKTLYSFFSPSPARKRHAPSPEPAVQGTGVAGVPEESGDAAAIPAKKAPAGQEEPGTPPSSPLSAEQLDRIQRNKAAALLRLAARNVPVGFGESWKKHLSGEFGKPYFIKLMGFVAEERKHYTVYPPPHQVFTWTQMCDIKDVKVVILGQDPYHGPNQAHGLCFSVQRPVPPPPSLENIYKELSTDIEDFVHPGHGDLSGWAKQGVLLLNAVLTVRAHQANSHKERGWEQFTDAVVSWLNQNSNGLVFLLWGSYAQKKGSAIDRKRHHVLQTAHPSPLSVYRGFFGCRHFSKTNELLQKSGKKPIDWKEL
G/T mismatch-specific thymine DNA glycosylase (Homo sapiens), sequence (Q13569 whole entry, the tested form may be a part): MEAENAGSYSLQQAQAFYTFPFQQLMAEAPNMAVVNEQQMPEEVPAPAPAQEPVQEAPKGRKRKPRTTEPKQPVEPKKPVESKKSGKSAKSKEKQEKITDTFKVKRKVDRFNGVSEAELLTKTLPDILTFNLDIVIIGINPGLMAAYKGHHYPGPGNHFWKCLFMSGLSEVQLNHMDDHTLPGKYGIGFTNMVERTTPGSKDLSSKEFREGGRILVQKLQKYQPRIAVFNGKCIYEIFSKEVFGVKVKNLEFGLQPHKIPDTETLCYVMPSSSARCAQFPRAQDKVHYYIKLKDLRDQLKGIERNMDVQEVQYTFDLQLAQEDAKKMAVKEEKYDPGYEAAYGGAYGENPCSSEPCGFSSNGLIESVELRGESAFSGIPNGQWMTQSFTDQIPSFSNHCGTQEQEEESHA

Row | Structure (SMILES) | inhibition ([1]; Compound Concentration 10.0 uM) [%] | inhibition ([2]; Compound Concentration 10.0 uM) [%] | inhibition ([3]; Compound Concentration 10.0 uM) [%] | inhibition [4, 9] [%] | inhibition ([5]; Compound Concentration 10.0 uM) [%] | inhibition ([6]; Compound Concentration 10.0 uM) [%] | inhibition ([7]; Compound Concentration 10.0 uM) [%] | inhibition ([8]; Compound Concentration 10.0 uM) [%] | inhibition ([1]; Compound Concentration 1.0 uM) [%] | inhibition ([2]; Compound Concentration 1.0 uM) [%] | inhibition ([3]; Compound Concentration 1.0 uM) [%] | inhibition [4, 10] [%] | inhibition ([5]; Compound Concentration 1.0 uM) [%] | inhibition ([6]; Compound Concentration 1.0 uM) [%] | inhibition ([7]; Compound Concentration 1.0 uM) [%] | inhibition ([8]; Compound Concentration 1.0 uM) [%] | inhibition ([4]; Compound Concentration 10.0 uM, Hit Yes) [%]
1 | CC[C@@H]1CN2C(=O)N(C)c3nc(-c4ccccc4)[nH]c3C2=N1 | -6.27 | -6.99 | 7.79 | -8.56 | 0.982 | -3.73 | -6.04 | -9.41 | – | – | – | – | – | – | – | – | –
2 | NS(=O)(=O)c1cc(NC(=O)C2(c3ccccc3Cl)CC2)ccc1Oc1cccc(Cl)c1 | 35.3 | 26.3 | -7.86 | 21.8 | -2.56 | 3.34 | 17.9 | -3.29 | – | – | – | – | – | – | – | – | –
3 | COc1cc(N[C@@H]2CCCC[C@]2(O)C(F)(F)F)ccc1F | – | – | – | – | – | – | – | – | 50.9 | 65.4 | -3.26 | 1.9 | 1.98 | 4.36 | 14.3 | 0.673 | –
4 | COc1ccc(CC[C@@H](OC(=O)[C@H]2CCCCN2C(=O)[C@@H](c2cc(OC)c(OC)c(OC)c2)C2CCCCC2)c2cccc(OCCN3CCOCC3)c2)cc1OC | 97 | 63.9 | 0.685 | -1.2 | -4.53 | 4.61 | 19.6 | 9.57 | – | – | – | – | – | – | – | – | –
5 | C=CC(=O)Nc1ccc2[nH]c(=O)n(C3CCN(Cc4ccc(-c5ccc6c(c5)NC(=O)CO6)cc4)CC3)c2c1 | 30.3 | 22.1 | -2.83 | 15.8 | 2.54 | -1.48 | 16.7 | 1.08 | – | – | – | – | – | – | – | – | –
6 | Cn1cc(-c2ccc3occ(-c4ccccc4-c4ccccc4)c3n2)cn1 | 33.2 | -2.48 | -8.28 | -7.06 | 6.35 | 1.31 | 17.5 | 0.982 | – | – | – | – | – | – | – | – | –
7 | CCCc1c(OCCCOc2ccc(OCC(=O)O)cc2)ccc(C(C)=O)c1O | 63 | 63.2 | 3.31 | 64.5 | -2.56 | 10.5 | 4.9 | 2.04 | – | – | – | – | – | – | – | – | –
8 | C[C@@H](c1cccc(CN)c1)n1cc(Cl)cc(C(N)=O)c1=N | 49.3 | 72.4 | -5.89 | -2.92 | -9.23 | 0.0213 | 3.56 | -0.0293 | – | – | – | – | – | – | – | – | –
9 | C[C@H](NC(=O)Cc1ccc(-c2ccc3cccnc3n2)cc1)c1ccc(-c2ccc(F)c(C(F)(F)F)c2)cc1 | 8.35 | 22.6 | 14.6 | 5.81 | 7.12 | -4.68 | -7.59 | -4.78 | – | – | – | – | – | – | – | – | –
10 | Nc1nc(NCc2ccccc2)nc(-c2cccc(CO)c2)n1 | 32.3 | 54 | -5.89 | -2.67 | -6.05 | -1.51 | 0.878 | -0.892 | – | – | – | – | – | – | – | – | –
11 | O=S(=O)(NC1CCC(c2cc(F)ccc2F)(S(=O)(=O)c2ccc(Cl)cc2)CC1)C(F)(F)F (stereo unspecified) | – | – | – | – | – | – | – | – | 36.8 | 61.8 | -3.92 | 19.6 | -7.56 | -8.91 | 19.5 | 0.604 | –
12 | COc1ccc(-c2ccc3cc(C(=O)O)ccc3c2)cc1C12CC3CC(CC(C3)C1)C2 | 39.5 | 48.6 | 6.6 | 34.6 | -5.14 | -6.1 | 7.63 | -6.23 | – | – | – | – | – | – | – | – | –
13 | Cc1cnc(-c2cc(Cl)ccc2F)cc1-n1c(=O)n(CC(N)=O)c2cnccc21 | 43.1 | 27.6 | -1.49 | 1.02 | -5.82 | -8.34 | 13.4 | 3.5 | – | – | – | – | – | – | – | – | –
14 | O=C(O)c1ccc2cc(-c3ccc(O)c(C45CC6CC(CC(C6)C4)C5)c3)ccc2c1 | 50.7 | 57.8 | -1.29 | – | -4.23 | -9.42 | 17.5 | 4.34 | – | – | – | – | – | – | – | – | 85.9
15 | CN1CCC[C@H]1c1cccnc1 | -9.56 | -6.38 | 8 | -8.49 | 4.6 | -0.35 | -4.08 | -2.67 | – | – | – | – | – | – | – | – | –
16 | COc1cccc(Cn2cc(C(=O)Nc3ccc(C)c(S(=O)(=O)N4CCOCC4)c3)c(-c3ccc(C)cc3)n2)c1 | 97.5 | 52.8 | 1.34 | 11.1 | -9.23 | -7.38 | 2.42 | -6.33 | – | – | – | – | – | – | – | – | –
17 | FC(F)(F)c1ccc2c(c1)nc(-c1cccnc1)n2C1CC1 | 39.3 | 61.4 | -7.86 | -3.61 | -3.77 | -9.67 | 3.68 | -0.0445 | – | – | – | – | – | – | – | – | –
18 | Cn1c(C2(NC(=O)c3ccc(NCC4CCCCC4)nc3)CCC2)nc2ccc(/C=C/C(=O)O)cc21 | 57.9 | 65.1 | 3.97 | 15 | 2.89 | 5.38 | 15.9 | 7.23 | – | – | – | – | – | – | – | – | –
19 | O=C(NOC[C@H](O)CO)c1ccc(F)c(F)c1Nc1ccc(I)cc1F | – | – | – | – | – | – | – | – | 39.9 | -6.44 | 5.67 | -3.87 | 6.08 | -6.76 | -2.11 | -1.39 | –
20 | CCOC(=O)c1ccc(C#Cc2ccc3c(c2)C(C)(C)CCS3)nc1 | 98.1 | 50.8 | 3.31 | 22.7 | 1.22 | 2.06 | 8.77 | -5.12 | – | – | – | – | – | – | – | – | –
21 | CC(C)(O)c1cn(-c2ccc(-c3cccc(S(C)(=O)=O)c3)cc2)c(C(C)(C)c2ccccc2Cl)n1 | 57.4 | 15.3 | -2.6 | 5 | -5.44 | -6.36 | 17.1 | -9.54 | – | – | – | – | – | – | – | – | –
22 | CN(C)C(=O)Cn1cc(-c2nc([C@@](C)(c3ccc(-c4cnc(N)nc4)cc3)C3CC3)no2)cn1 | – | – | – | – | – | – | – | – | 41 | 54.5 | -9.18 | -4.49 | -7.71 | -2.79 | 14.1 | 6.25 | –
23 | CNC(=O)COc1cc2cc(Nc3nc(N4C[C@H](C)C[C@H](C)C4)ncc3Cl)ccc2n(C)c1=O | 53.4 | 45.8 | -7.86 | 1.85 | -7.56 | 4.1 | 10.3 | 2.34 | – | – | – | – | – | – | – | – | –
24 | CCOC(=O)N1CCC(NS(=O)(=O)c2ccc(NC(=O)c3ccccc3C)c3ccccc23)CC1 | 4.53 | -4.31 | -6.86 | 6.16 | 16.8 | 3.73 | -0.636 | -2.92 | – | – | – | – | – | – | – | – | –
25 | C=C1/C(=C\C=C2/CCC[C@]3(C)[C@@H]([C@H](C)/C=C/[C@H](C)C(C)C)CC[C@@H]23)C[C@@H](O)C[C@@H]1O | 47.8 | 52.9 | 0.685 | -5.13 | -1.8 | -1.51 | 9.91 | 1.6 | – | – | – | – | – | – | – | – | –
26 | O=C(O)c1ccnc(N2CC(O)(c3ccc(OCc4c(-c5c(Cl)cccc5Cl)noc4C4CC4)cc3Cl)C2)c1 | 97.2 | 54.3 | 5.29 | 35.5 | -4.99 | 3.34 | 16.5 | 4.51 | – | – | – | – | – | – | – | – | –
27 | Cc1cc(C)c(-n2ccn3nc(-c4cccnc4)cc23)cc1NC(=O)c1cc(C#N)cc(S(F)(F)(F)(F)F)c1 | – | – | – | – | – | – | – | – | 50.8 | 40 | -3.66 | 1.96 | -7.27 | -7.9 | 7.64 | 1.49 | –
